Here are results for 1 compound from patent US20230270721A1, “INHIBITION OF BAX-MEDIATED CELL DEATH BY ELTROMBOPAG” (Albert Einstein College of Medicine, priority 2020, published 2023).

The target of one assay is T1, BAX R134E (Homo sapiens, UniProt Q07812, R134E).
T1 construct: Human full-length (1-192) wild-type BAX (Q07812); made in house; host or cells: E. coli BL21 (DE3) CodonPlus (DE3)-RIPL
The assay is described as follows: Liposomal permeabilization assay, trigger site mutant R134E. The class given is biochemical. As to conditions: 250 nM BAX and 5 nM tBID. On the procedure:
(§1) Lipids (Avanti Polar Lipids) at the following ratio, phosphatidylcholine 48%, phosphatidylinositol 10%, dioleoyl phosphatidylserine 10%, phosphatidylethanolamine, 28%, and tetraoleoyl cardiolipin 4%, were mixed in a total of 1 mg, dried and resuspended in 10 mM HEPES, pH 7, 200 mM KCI, and 5 mM MgCl2 with 12.5 mM 8-aminonaphthalene-1,3,6-trisulfonic acid (ANTS) dye and 45 mM p-xylene-bis-pyridinium bromide (DPX) quencher (Molecular Probes) using a water bath sonicator. Liposomes were formed by extrusion of the suspension using Avanti Mini-Extruder (Cat # 610000) with polycarbonate membranes of 0.1 µm pore size (Avanti Polar Lipids). […] ANTS/DPX release was quantified based on the increase in fluorescence intensity that occurs when the ANTS fluorophore is separated from the DPX quencher upon release from the liposomes into solution. Fluorescence (λex = 355 nm and λem = 520 nm) was measured at 1 minute intervals at room temperature (22-25° C.) indicated using a Tecan Infinite M1000 plate reader. In the case of heat activation, reactions were set up as described in the absence of tBID or BIM, and experiments were recorded at 42° C. The percentage release of ANTS/DPX at any given time point was calculated as percentage release=((F-F0)/(F100-F0))(100), where F0 and F100 are baseline and maximal fluorescence, respectively. […]

In assay [1] the test system is 3T3 cells. The assay is described as follows: Caspase 3/7 activation assay, ABT-263 + S63845. The class given is cell-based, murine. As to conditions: 1 µM ABT-263 and 1 µM S63845, 4 hr. On the procedure: (§2) 3T3 cells were maintained in media identical to that of MEFs. 3T3 cells were seeded (1×10^4 cells/well) in 96-well opaque plates for 18-24 hr. The media was removed and replaced with media lacking FBS, and cells were treated with EO as a 10X stock in H2O at the indicated doses for 2 hr before addition of 10% FBS. Cells were then treated with 1 µM each of ABT-263 and S63845. Caspase 3/7 activation was measured at 4 hr by addition of the Caspase-Glo 3/7 chemiluminescence reagent in accordance with the manufacturer’s protocol (Promega). Luminescence was detected by an F200 PRO microplate reader (TECAN). Percentage caspase activation was normalized to ABT-263 + S63845 alone (100%) and untreated cells (0%). Viability assays were performed at 24 hr by addition of CellTiter-Glo according to the manufacturer’s protocol (Promega). Luminescence was detected by an F200 PRO microplate reader (TECAN). Percentage viability was normalized to untreated cells (100%).
(§3) Next, whether EO is capable of rescuing cell death in cells expressing both BAX and BAK was determined. 3T3 cells, a murine fibroblast cell line, were treated with a combination of BH3-mimetics navitoclax (ABT-263) and S63845, which only in combination cause significant cytotoxicity in fibroblast cells.

In assay [2] the test system is 3T3 cells. The assay is described as follows: Cell viability assay (CellTiter-Glo), ABT-263 + S63845. Format: cell-based, murine. The conditions noted are these: 1 µM ABT-263 and 1 µM S63845, 24 hr. On the procedure:
as §2, §3
Background: In ATP-based viability assays light output follows the ATP content of the culture.

For the next assay, the target named is T2, BAX K21E (Homo sapiens, UniProt Q07812, K21E).
T2 construct: Human full-length (1-192) wild-type BAX (Q07812); made in house; host or cells: E. coli BL21 (DE3) CodonPlus (DE3)-RIPL
T2 sequence (Q07812 whole entry K21E): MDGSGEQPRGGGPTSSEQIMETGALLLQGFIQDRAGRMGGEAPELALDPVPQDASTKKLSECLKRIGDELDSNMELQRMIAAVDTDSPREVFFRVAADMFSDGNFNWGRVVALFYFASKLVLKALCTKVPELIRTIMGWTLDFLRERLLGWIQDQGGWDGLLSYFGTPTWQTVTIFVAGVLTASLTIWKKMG
The assay is described as follows: Liposomal permeabilization assay, trigger site mutant K21E. Format: biochemical. As to conditions: 250 nM BAX and 5 nM tBID. On the procedure:
as §1

A further assay concerns the target T3, BAX-4C (Homo sapiens, UniProt Q07812, C126S/C62S/S4C).
T3 construct: Human full-length (1-192) wild-type BAX (Q07812); made in house; host or cells: E. coli BL21 (DE3) CodonPlus (DE3)-RIPL
The assay is described as follows: Microscale thermophoresis (MST) direct binding. As to conditions: 50 nM labeled BAX; read-out: dissociation constant KD. The method, then:
Recombinant BAX C62S-C126S-S5C (4C), previously established for evaluating BAX (Garner, T.P., et al. Nat Chem Biol 15, 322-330 (2019)) binding compounds with MST, or BAX C62S-C126S-S5C-R134E-R145E (R134E-R145E-4C) was labeled at cysteine using the Monolith Protein Labeling Kit Red Maleimide (NanoTemper Technologies) according to the instructions of the manufacturer (Garner, T.P., et al. Nat Chem Biol 15, 322-330 (2019)). Briefly, 10 µM protein was incubated with 0.9 equivalents of dye in MST buffer (100 mM potassium phosphate, pH 7.4, 150 mM NaCI) in the dark at room temperature (22-25° C.) for 1 hr. […] Samples were loaded into standard glass capillaries (Monolith NT.155 Capillaries) and analyzed by MST using a Monolith NT.115 Blue/Red, LED power and IR laser power of 80%. Fraction bound and error was generated by NanoTemper software (MO.Affinity Analysis), and KD values were determined using GraphPad Prism nonlinear fit four-parameter agonist versus response with restraints for 0 and 1 fraction bound.
To test this hypothesis, a competitive fluorescence polarization assay (FPA) (Gavathiotis, E., et al. Nat Chem Biol 8, 639-645 (2012)) based on the interaction between BAX and fluorescently-labeled stapled BIM-BH3 peptide (FITC-BIM-SAHB) was used (Gavathiotis, E., et al. Nature 455, 1076-1081 (2008)). […]

In assay [3] the test system is megakaryocyte precursors and progenitor cells. The conditions noted are these: differentiation of megakaryocyte precursors and progenitor cells; cited from earlier work.

T1 sequence (Q07812 whole entry R134E): as the sequence (Q07812 whole entry K21E) above, with E21K, R134E counted along it
T3 sequence (Q07812 whole entry S4C/C62S/C126S): as the sequence (Q07812 whole entry K21E) above, with S4C, E21K, C62S, C126S counted along it

For `CC1=NN(c2ccc(C)c(C)c2)C(=O)/C1=N\Nc1cccc(-c2cccc(C(=O)O)c2)c1O` [EO, eltrombopag], the “inhibition of liposomal release versus BAX WT” value is “slight trend towards weaker inhibition” against BAX R134E and “not reduced inhibition” at BAX K21E. In addition, the “apoptosis mediated by caspase 3/7 activity” value in the assay with 3T3 cells [1] is “significant reduction of apoptosis”. Moreover, the cell viability result in the assay with 3T3 cells [2] is “dose-dependent rescue of cell viability”. The Kd – broadly, the concentration at which binding is half-saturated – at BAX-4C came to 143 nM. In assay [3], the “time for stimulation of platelet production to begin” value was 5 days.
